Measurements: patent US8987201B2, “Black bear parathyroid hormone and methods of using black bear parathyroid hormone” (Michigan Technological University, priority 2009, dated 2015)
Entries after “also recorded” stand apart in the source; their conditions may differ.

Assays:
MC-3T3 cells = assay: Gene expression by real-time PCR in MC-3T3 cells (Example 11); assay type: cell-based; conditions: 100 nM
Protocol: MC-3T3 cells were incubated in vehicle or 100 nM synthetic bear or human PTH 1-34 for 3 or 6 hours (n=2 or 4). Total RNA was isolated, and cDNA was generated with reverse transcription. Primers for the bone matrix proteins type I collagen and osteocalcin, the pro-apoptotic protein Bax, the anti-apoptotic protein Bcl-2, and the housekeeping genes Gapdh, β-actin, and cyclophillin were designed using PrimerQuest software (Integrated DNA Technologies, Coralville, Iowa). Real-time PCR was performed using the Mx3000P real-time PCR system (Stratagene, LaJolla, Calif.). All samples were measured in duplicate. Gene expression was determined using the relative standard curve method normalized to the geometric mean of the three housekeeping genes (Gapdh, β-actin, and cyclophillin). Apoptosis-related genes were analyzed as the expression ratio of Bax/Bcl-2, since a decrease in this ratio is associated with decreased apoptosis in vitro.

rats = conditions: Tashjian et al. 2008; cited from earlier work
Male Swiss-Webster mice = assay: Trabecular bone structure and mineralization in the proximal tibia (micro-computed tomography); assay type: in vivo, mouse; conditions: PTH 1-34 study: 11 wk old mice, 8 weeks, proximal tibia, normalized by body mass
Source text: All handling procedures and experiments were approved by the Michigan Technological University Institutional Animal Care and Use Committees. Male Swiss-Webster mice were obtained from a commercial breeder (Harlan, Indianapolis, Ind.). All animals were maintained on a 12-h light/12-h dark cycle, and were permitted free access to water and food containing 0.95% calcium (Purina Rodent Diet #5001).
In the first experiment, 11 wk old mice received daily (5 days/week) subcutaneous injections of 2.5 nmol/kg PTH 1-34 (hPTH 1-34 or bbPTH 1-34) or acidic saline vehicle (0.15 M NaCl+0.001 N HCl) for 8 weeks (n=10 mice/group). In the second experiment, 12 wk old mice received daily (5 days/week) subcutaneous injections of 2.5 nmol/kg PTH 1-84 (hPTH 1-84 or bbPTH 1-84) or acidic saline vehicle for 8 weeks (n=10 mice/group). All PTH- and vehicle-treated animals received subcutaneous injections of calcein at a dosage of 10 mg/kg on days 12 and 3 before death to label mineralizing bone surfaces. Twenty-four hours following the last treatment injection, mice were sacrificed by carbon dioxide asphyxiation. Right femurs were fixed in 10% neutral buffered formalin. Left femurs were wrapped in 0.15M saline soaked gauze and stored at −20 deg C. Left tibias were stored in 70% ethanol at 4 deg C.
Trabecular bone architecture and mineralization were evaluated in the left proximal tibial metaphysis (0.7 mm distal to the growth plate) using micro-computed tomography. Tibias from experiment 1 were scanned on a μCT35 scanner (Scanco Medical AG, Basserdorf, Switzerland) at 3.5 μm (high) resolution. Tibias from experiment 2 were scanned on a μCT40 scanner (Scanco Medical AG, Basserdorf, Switzerland) at 7 μm (high) resolution. Bones were scanned in 70% ethanol. Trabecular bone volume fraction (BV/TV, %), trabecular number (Tb.N, mm^−1), trabecular thickness (Tb.Th, m), trabecular separation (Tb.Sp, m), trabecular apparent mineral density (App.Mn.Dn, mgHA/cm^3) and trabecular tissue mineral density (Mat.Mn.Dn, mgHA/cm^3) were computed using the manufacturer's software.
All bone geometrical, architectural, and mineral properties were normalized by body mass to account for potential variation in animal size (31-33). Trabecular bone properties quantified by micro-computed tomography were compared by ANOVA between vehicle, bear, and human PTH-treated mice within each study (PTH 1-34 or PTH 1-84). The microCT parameters were not directly compared between the PTH 1-34 and PTH 1-84 studies because analyses were conducted on different microCT machines. For all other bone properties, all six experimental groups (from both the PTH 1-34 and PTH 1-84 studies) were compared with ANOVA and Fisher's PLSD. A significance of p<0.05 was used for all comparisons.

[1] = tested on: human fetal osteoblasts (hFOB); assay: Serum starvation cell death in human fetal osteoblasts (trypan blue); assay type: cell-based; conditions: 100 nM for 1 hour before serum starvation for 24 hours, preliminary studies, p<0.0001
Protocol: All PTH peptides used in the current study attenuated apoptotic signaling induced by serum starvation in vitro (FIG. 19). bbPTH 1-34 reduced apoptotic signaling in pre-osteoblastic cells more than human PTH (FIG. 19). Recently, we found similar results with preliminary studies in human fetal osteoblasts (hFOB). Serum starvation for 24 hours increased cell death in hFOB (confirmed via trypan blue staining), but pretreatment of hFOB cells with 100 nM PTH 1-34 or 1-84 for 1 hour before starvation reduced percent cell death (percentage change in cell death compared to vehicle pretreatment, hPTH 1-34: −18%, bbPTH 1-34: −25%, hPTH 1-84: −17%, bbPTH 1-84: −21%; p<0.0001; data not shown). […] However, although bbPTH 1-84 was less anti-apoptotic than bbPTH 1-34 and hPTH 1-34 in vitro (FIG. 19) it caused the greatest increases in cortical and trabecular bone mass in the in vivo studies (Table 1, Table 2).

human PTH 1-34 [hPTH 1-34]
expression ratio of Bax/Bcl-2 (MC-3T3 cells; 3 hours, n=4, bear vs human p=0.047): increases | expression of type I collagen compared to the vehicle control (MC-3T3 cells; 6 hours): did not affect | expression of osteocalcin compared to the vehicle control (MC-3T3 cells; 6 hours, n=2): substantially upregulated; also recorded: upregulate | dose shown to be carcinogenic in rats (rats): 5 µg/kg | BV/TV (Male Swiss-Webster mice; 2.5 nmol/kg s.c. daily 5 days/week): 1.35 %/kg | App. Mn. Dn (Male Swiss-Webster mice; 2.5 nmol/kg s.c.): 1783 mgHA/(cm^3*kg) | Mat. Mn. Dn. (Male Swiss-Webster mice; 2.5 nmol/kg s.c.): 31281 mgHA/(cm^3*kg) | Tb. N (Male Swiss-Webster mice; 2.5 nmol/kg s.c.): 105.0 1/mm*kg | Tb. Sp (Male Swiss-Webster mice; 2.5 nmol/kg s.c.): 9.57 mm/kg | Tb. Th (Male Swiss-Webster mice; 2.5 nmol/kg s.c.): 1.05 mm/kg | percentage change in cell death compared to vehicle pretreatment [1]: −18%
